# Read-outs that look alike come from different tables or passages of the source.
# Tests used:
# [1] = tested on: dCK-C3S-S74E; assay: Enzymatic assay (PK/LDH coupled), dC phosphorylation by dCK in the presence of UTP; type: biochemical, human; settings: presence of UTP
# Experimental: (§1) For enzymatic assays, cells were re-suspended in 20 mM TRIS, pH 8 500 mM NaCl, 0.1% BRIJ-35 and 5% glycerol buffer and one EDTA free anti-protease tablet was added (Roche). After sonication and centrifugation (30,000 × g), the supernatant was loaded on a 5 ml HisTrap FF column (GE healthcare) pre-equilibrated with 20 mM TRIS, pH 8, 500 mM NaCl, 0.01% BRIJ-35 and 5% glycerol buffer. The protein was then eluted by the same buffer containing 250 mM imidazole after a wash containing 25 mM imidazole. The eluted fraction was applied on a HiPrep 26/10 desalting column (GE healthcare) pre-equilibrated with 20 mM TRIS, pH 8, 500 mM NaCl, 5% glycerol and 0.01% BRIJ-35 buffer. Finally, protein in a 20% glycerol buffer was flash frozen in liquid nitrogen and stored at −80 °C.
# (§2) Kinetic analyses were performed using a spectrophotometric continuous enzymatic-coupled assay using pyruvate kinase (PK) and lactate dehydrogenase (LDH). […] UTP is the physiological dCK-phosphate donor[46] and it was used to determine activation versus inhibition behavior. ATP was used to calculate IC50 values, as it allows the analysis of a dose response curve. The PK/LDH coupled assay is based on the conversion of phosphoenolpyruvate (PEP) and UDP/ADP to pyruvate and UTP/ATP by PK and the subsequent conversion of pyruvate to lactate by LDH. The latter step requires NADH, which is oxidized to NAD^+. NADH is fluorescent (excitation at 337 nm and emission at 460 nm), but not NAD^+. Thus, the measurement of fluorescent decrease at 460 nm is a measure of kinase activity. dCK experiments were performed in a buffer containing 50 mM HEPES, pH 7.5, 5 mM MgCl2, 1 mM DTT, and 100 mM KCl. Buffer was supplemented with PK (0.01 U/µl), LDH (0.02 U/µl), PEP (1 mM), NADH (300 µM) and compounds at varying concentrations. For UTP assays, protein concentration was 2 μM, substrate 200 µM (dC), and UTP 1 mM. For ATP assays, protein concentration was 100 nM (and 50 nM when indicated), substrate 100 µM (dC), and ATP 1 mM. All measurements were performed on a microplate reader Pherastar FS (BMG Labtech). All assays were performed in triplicate and each experiment was performed at least twice. The data are presented as mean ± SD. The results were plotted as kinetics and the velocity was determined for each condition as the slope of the linear range of the curve. For each compound concentration, the velocity of the reaction (according to V = d[P]/dt) was normalized with respect to the drug free control and velocity ratios were compared. IC50 values corresponding to enzymatic inhibition in ATP were calculated by nonlinear regression curves using GraphPad Prism software 9.4.0.
# [2] = target: dCK-C3S-S74E; assay: Enzymatic assay (PK/LDH coupled), dC phosphorylation by dCK in the presence of ATP; type: biochemical, human; settings: presence of ATP, [dCK] = 50 nM (footnote A); read-out: ENZYMATIC ASSAY IC50
# Experimental: as §1
# (§3) Kinetic analyses were performed using a spectrophotometric continuous enzymatic-coupled assay using pyruvate kinase (PK) and lactate dehydrogenase (LDH). Analysis of the effect of compounds on dCK-C3S-S74E activity was performed using dC as substrate and UTP/ATP as phosphate donors. UTP is the physiological dCK-phosphate donor[46] and it was used to determine activation versus inhibition behavior. ATP was used to calculate IC50 values, as it allows the analysis of a dose response curve. The PK/LDH coupled assay is based on the conversion of phosphoenolpyruvate (PEP) and UDP/ADP to pyruvate and UTP/ATP by PK and the subsequent conversion of pyruvate to lactate by LDH. The latter step requires NADH, which is oxidized to NAD^+. NADH is fluorescent (excitation at 337 nm and emission at 460 nm), but not NAD^+. Thus, the measurement of fluorescent decrease at 460 nm is a measure of kinase activity. dCK experiments were performed in a buffer containing 50 mM HEPES, pH 7.5, 5 mM MgCl2, 1 mM DTT, and 100 mM KCl. Buffer was supplemented with PK (0.01 U/µl), LDH (0.02 U/µl), PEP (1 mM), NADH (300 µM) and compounds at varying concentrations. For UTP assays, protein concentration was 2 μM, substrate 200 µM (dC), and UTP 1 mM. For ATP assays, protein concentration was 100 nM (and 50 nM when indicated), substrate 100 µM (dC), and ATP 1 mM. All measurements were performed on a microplate reader Pherastar FS (BMG Labtech). All assays were performed in triplicate and each experiment was performed at least twice. The data are presented as mean ± SD. The results were plotted as kinetics and the velocity was determined for each condition as the slope of the linear range of the curve. For each compound concentration, the velocity of the reaction (according to V = d[P]/dt) was normalized with respect to the drug free control and velocity ratios were compared. IC50 values corresponding to enzymatic inhibition in ATP were calculated by nonlinear regression curves using GraphPad Prism software 9.4.0.
# [3] = tested on: dCK-C3S-S74E; assay: Thermal shift assay (TSA); settings: for ΔTm (º) (TSA): Figure 2a, mean; for THERMAL SHIFT ASSAY +Tm (°): mean ± SD
# [4] = tested on: CCRF-CEM cell line; assay: dCK cellular assay: CCRF-CEM proliferation in the presence of dT and dC; type: cell-based, human; settings: for IC50: Homo sapiens, read-out: IC50 (nM) (Cell Prolif)
# Experimental: The dCK cellular assay was set up to assess the ability to inhibit dCK activity in a cellular model. The model was developed with a T-cell acute lymphoblastic leukemia cell line (CCRF-CEM), because of its high dependence on the SP, thus on dCK activity. Cellular assays were performed to assess the inhibition of cell proliferation under two conditions: (i) in the presence of the compound alone to determine the nonspecific effect on cells, independent of dCK (nonspecific toxicity) and (ii) in the presence of an inhibitor of the DNP to determine the ability of compounds to inhibit dCK and decrease tumor proliferation (activity on dCK). The inhibitor of the DNP chosen for the experiments was thymidine (dT), a physiological inhibitor of ribonucleotide reductase which arrests cell proliferation in phase S. The dTTP produced via thymidine kinase from dT acts as a RNR inhibitor by an allosteric regulation of the R1 subunit. The addition of the nucleoside deoxycytidine (dC) in the medium allows the rescue of cell proliferation by passing only through the salvage pathway, mediated by dCK. dC needs to be added exogenously to mimic physiological concentrations because it is not present in the cell culture medium, on the contrary to mouse model, in which it is naturally present in the serum. Therefore, cell proliferation under these conditions (+dT +dC) is dCK dependent and it is possible to determine the IC50 of dCK inhibitors on the inhibition of cell proliferation. Results are expressed as % cell proliferation relative to the control with DMSO.
# The amount of reduced dye formed by metabolically active cells was quantified by its fluorescence measured at 560 nm (excitation) and 590 nm (emission) in a microplate reader (CLARIOstar, BMG Labtech). A blank well without cells was used as a background control. Each experiment was performed at least three times (with technical triplicates) and data are presented as the mean ± SD.
# [5] = Plasma pharmacokinetics after IP administration; type: in vivo; settings: male, Swiss, mouse, mice, dose 20 mg/Kg
# Experimental: (§4) To evaluate the in vivo toxicity selected compounds were injected by intraperitoneal (IP) route to 7 weeks-old male Swiss mice (n = 2) at 10, 20, 40, 50, or 80 mg/kg by unique injection. […] Compounds were administered in their hydrochloride salt forms. Mice were then observed closely for the next one hour, then every hour for 8 h. Observations were continued for 72 h for signs of pain or toxicity such as change in the behavior and in the activity in the cage (decreased locomotion) or change in the appearance (curved back, eyes half-closed, bristle hair, hips hollowed out). In vivo toxicity of compound OR0642 at 40 and 80 mg/kg was also assessed in the NOD-SCID-IL2Rγc null (NSG) mice model for 2 weeks in the presence and absence of dT to confirm the safety of the compound. […]. Blood samples were collected and spun at 10,000 × g prior to collecting the plasma supernatants. All plasma samples were frozen at −80 °C before sample processing. 13 μl of each plasma sample was mixed with 33 μl of acetonitrile to precipitate proteins and extract the compound. Samples were vortexed for 5 min and then placed in an ultrasonic bath for 1 min. The precipitated proteins were sedimented by centrifugation (15,000 × g, 5 min, 16 °C). Supernatants were transferred to a microplate to be analyzed by LC–MS/MS. All samples were analyzed with a UHPLC coupled to a Shimadzu LC-MS 8030 triple quadrupole. The solutions of a standard range, prepared with plasma from untreated mice, were analyzed in the same series of injections.
# [6] = target: T1, dCK-C3S-S74E (Homo sapiens, UniProt P27707, form not given/S74E); assay: Enzymatic assay (PK/LDH coupled), dC phosphorylation by dCK in the presence of UTP; type: biochemical; settings: presence of UTP
# Experimental: as §1, §2
# [7] = target: T1, dCK-C3S-S74E; assay: Enzymatic assay (PK/LDH coupled), dC phosphorylation by dCK in the presence of ATP; type: biochemical
# Experimental: as §1, §3
# [8] = Acute in vivo toxicity, unique IP injection; settings: male, mouse, in vivo; Swiss mice, IP, unique injection; read-out: Maximum tolerated dose
# Experimental: as §4
# [9] = target: T1, dCK-C3S-S74E; assay: Thermal shift assay (TSA); settings: for ΔTm (º) (TSA): Figure 2a, mean
# [10] = Figure 2a, CCRF-CEM cell line, mean
# T1 sequence (P27707 whole entry S74E, form open): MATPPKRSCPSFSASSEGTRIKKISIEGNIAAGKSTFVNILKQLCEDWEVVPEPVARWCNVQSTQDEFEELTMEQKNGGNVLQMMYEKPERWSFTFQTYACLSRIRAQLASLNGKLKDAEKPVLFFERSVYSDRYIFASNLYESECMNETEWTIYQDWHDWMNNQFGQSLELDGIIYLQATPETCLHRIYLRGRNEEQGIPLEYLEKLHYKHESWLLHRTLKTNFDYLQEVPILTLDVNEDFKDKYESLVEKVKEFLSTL
# T1 sequence (P27707 whole entry S74E, form open): as above
structure (smiles),measurement,setting,value
CCCN(c1nc(-c2nc(N)cc(N)n2)cs1)c1cc(-c2ccc(S(=O)(=O)N3CCOCC3)cc2)ccc1C [OR0617],ENZYMATIC ASSAY (Activation/Inhibition),[1],I
same,IC50,[2],181 ± 15 nM
same,ΔTm (º) (TSA),[3],18.29 º
same,THERMAL SHIFT ASSAY +Tm (°),[3],18.3 ± 1.1 °
same,IC50,[4]; [10],78 nM
CCCN(c1nc(-c2nc(N)cc(N)n2)cs1)c1cc(-c2ccc(S(=O)(=O)N(C)C)cc2)ccc1C [OR0618],ENZYMATIC ASSAY (Activation/Inhibition),[1],I
same,IC50,[2],139 ± 12 nM
same,ΔTm (º) (TSA),[3],18.79 º
same,THERMAL SHIFT ASSAY +Tm (°),[3],18.8 ± 0.6 °
same,IC50,[4]; [10],80 nM
CCCN(c1nc(-c2nc(N)cc(N)n2)cs1)c1cc(-c2ccc(S(=O)(=O)N3CCN(C)CC3)cc2)ccc1C [OR0624],Cmax,[5],3.1 ± 0.6 µM
same,Tmax,[5],1 h
same,half-life,[5]; read-out: T ½ (converted),2.22 ± 0.183 h
same,ENZYMATIC ASSAY (Activation/Inhibition),[6],I
same,Enzymatic activity (ATP) Mean (% activity),[7]; 0.02 µM,91.0%
same,Enzymatic activity (ATP) Mean (% activity),[7]; 0.04 µM,91.7%
same,Enzymatic activity (ATP) Mean (% activity),[7]; 0.08 µM,65.2%
same,Enzymatic activity (ATP) Mean (% activity),[7]; 0.16 µM,32.0%
same,Enzymatic activity (ATP) Mean (% activity),[7]; 0.31 µM,9.2%
same,Enzymatic activity (ATP) Mean (% activity),[7]; 0.63 µM,3.9%
same,Enzymatic activity (ATP) Mean (% activity),[7]; 1.25 µM,2.6%
same,Enzymatic activity (ATP) Mean (% activity),[7]; 2.5 µM,1.2%
same,Enzymatic activity (ATP) Mean (% activity),[7]; 5 µM,0.363%
same,IC50,"[7]; read-out: ENZYMATIC ASSAY IC50, presence of ATP, [dCK] = 50 nM (footnote A)",198 ± 131 nM
same,MTD at 72 h,[8],20 mg/kg
same,ΔTm (º) (TSA),[9],19.49 º
same,Thermal Shift Assay Mean (ΔTm (º)),[9]; Figure 2b,19.5 º
same,THERMAL SHIFT ASSAY +Tm (°),[9]; mean ± SD,19.5 ± 0.8 °
CCCN(c1nc(-c2nc(N)cc(N)n2)cs1)c1cc(-c2ccc(S(=O)(=O)N3CCN(CC(=O)[O-])CC3)cc2)ccc1C.[Na+] [OR0649],ΔTm (º) (TSA),[9],17.61 º
same,IC50,[4]; CCRF-CEM,13400 nM
CCCN(c1nc(-c2cccnc2)cs1)c1cc(-c2ccc(S(=O)(=O)N3CCN(C)CC3)cc2)ccc1C [OR0659],IC50,"[7]; ATP, read-out: enzymatic inhibition IC50",> 100000 nM
same,"ΔTm, dCK thermal stabilization (TSA)","[9]; 5 μM protein, 50 μM compound",6.3 °C
same,inhibition of cell proliferation in combination with dT,"[4]; CCRF-CEM, presence of dT + dC",unable to inhibit cellular proliferation
